Reference: patent US20240000979A1, “METHODS AND COMPOSITIONS FOR SYNERGISTIC UPTAKE AND RETENTION OF SMALL MOLECULE LIGANDS” (CORNELL UNIVERSITY, priority 2020, published 2024)

Columns and labels:
LNCaP tumors [1] = test: SPECT/CT imaging of radioactivity within tumors after injection; assay type: in vivo, mice; conditions: for activity concentration in tumor (imaging): mean of group, LNCaP tumors in mice
Experimental: In this animal study, three groups of mice were implanted with LNCaP tumors (in Matrigel) with 6-8 tumors per group. After the tumors were established, one group was injected with J591-Lu^177, a 2nd group with PSMA-617-Lu^177 and a 3rd group got both PSMA617-Lu^177 and J591-Lu^177.
Radiolabeling both PSMA-617 and J591 allowed both to be tracked individually as well as their total when combined. All mice were imaged in a Siemens Inveon dedicated animal multimodality SPECT/CT. Coaxial CT images were acquired for anatomical and attenuation information prior to each SPECT acquisition to measure the radioactivity within the tumors at the 1, 4, 24 and 72 hour time points after injection. SPECT images were reconstructed using the Siemens OSEM algorithm with corrections for scatter, attenuation, decay, and ^177Lu emission spectrum. The mean number of counts within the tumors in each group and time point was calculated and plotted. THe imaging data measured an activity concentration in Bq/mL of tumor: […]

LNCaP tumors [2] = test: Tumor harvest at necropsy and direct scintillation counting of tumor radioactivity; assay type: in vivo, mice; conditions: Day 3 (72 hours) tumor harvest
Text: The dotted line represents the summation of the counts in the 617-Lu^177 plus the J591-Lu^177 tumors. […] To confirm the accuracy of this experiment which was based on […] imaging, determinations were done by tumor harvest at necropsy followed by direct counting of the radioactivity within the previously imaged tumors and calculating counts per mg of tumor.
At the Day 3 tumor harvest, the mean counts per mg tumor in each of the groups is shown in the table below (and FIG. 2) further confirming the imaging results.
In this animal study, which is a continuation of the imaging study described in Example 1, when the imaging was completed at 72 hours, the animals were necropsied, the tumors harvested, weighed and counted in a scintillation counter to derive the amount of radioactivity per mg (cpm/mg) of tumor. The tumors treated with J591-Lu^177 had 2.2-fold the counts of those tumors that had gotten PSMA-617-Lu^177 alone (FIG. 2). The tumors treated with the combination had counts 48% greater than the sum of each of its individual components, meeting the definition of synergy (FIG. 2). The physical counting of the tumor radioactivity confirmed the results obtained by imaging.

O=C(O)CC[C@H](NC(=O)N[C@@H](CCCCNC(=O)[C@H](Cc1ccc2ccccc2c1)NC(=O)[C@H]1CC[C@H](CNC(=O)CN2CCN(CC(=O)O)CCN(CC(=O)O)CCN(CC(=O)O)CC2)CC1)C(=O)O)C(=O)O [PSMA-617-Lu^177]
course of tumor counts over time (imaging, in words) (LNCaP tumors [1]; 1 to 72 hour, LNCaP tumors): high uptake at 1 hour that then diminished over time
activity concentration in tumor (imaging) (LNCaP tumors [1]; 1 hr after injection): 29.55 Bq/mL
activity concentration in tumor (imaging) (LNCaP tumors [1]; 4 hr after injection): 30.62 Bq/mL
activity concentration in tumor (imaging) (LNCaP tumors [1]; 24 hr after injection): 27.1 Bq/mL
activity concentration in tumor (imaging) (LNCaP tumors [1]; 72 hr after injection): 12.48 Bq/mL
Mean cpm/mg tumor (LNCaP tumors [2]): 7.536 cpm/mg
